Measurements as given in publication PMC10584170, “Machine learning-based phenotypic imaging to characterise the targetable biology of Plasmodium falciparum male gametocytes for the development of transmission-blocking antimalarials” (PLOS Pathogens, 2023).
pIC50: −log10 of the molar value. Where two headings read alike, the source gives them in different places.

Experiments:
[1] = test system: P. falciparum male gametocytes; experiment: P. falciparum Dual Gamete Formation Assay (PfDGFA), male readout (exflagellation); assay type: cell-based, Plasmodium falciparum NF54; conditions: for Activity: hit = >50% inhibition in male or female readout in at least 3 replicates, 0 = no class assigned
Protocol: (§1) P. falciparum NF54 (originally isolated from an imported malaria case in the Netherlands in the 1980s; BEI Resources, cat. No. MRA-1000) strain asexual parasites were maintained between 0.3–5% parasitaemia by regular passage in complete culture medium (RPMI supplemented with 25 mM HEPES, 50 μg ml^−1 hypoxanthine, 4.8 g l^−1 NaHCO3, 2mM L-glutamine, 5% pooled type AB serum, 0.5% Albumax II (Gibco)) at 4% haematocrit in washed whole blood (National Blood and Transfusion Service or Centro de Transfusiones de la Comunidad de Madrid CTCM) under a 1% O2/3% CO2/96% N2 environment. Gametocytes were induced by seeding culture flasks at 2% parasitaemia/4% haematocrit and subjecting them to daily medium changes for 14 days whilst maintaining a temperature of 37°C at all times. On Day 14, the maturity of gametocytes was assessed by quantifying male gametogenesis (exflagellation). A 20 μl sample of gametocyte culture was mixed with equal volume of ookinete medium (complete culture medium supplemented with 0.1 μM xanthurenic acid) at room temperature and transferred to a haemocytometer. After 20 min at room temperature, exflagellation was accurately quantified as described in Delves et al. 2016 [17].
(§2) The Pf DGFA was performed as described in Delves et al. 2016 [17]. […] Plates were then incubated for 24 h at 37°C in a humidified box under a 1% O2/3% CO2/96% N2 gas mix. Gametogenesis was triggered by addition of 10 μl per well of ookinete medium + 0.27 μg ml^-1 Cy3-labelled anti-Pfs25 antibody. Plates were incubated on a metal block at 4°C for 4 min to ensure even cooling, then 28°C for a further 4 min. Exflagellation was recorded by capturing 10 frames over 1 s under brightfield illumination using a x4 objective with a 1.5x zoom (effectively x6) attached to an automated Nikon Ti fluorescence microscope. After recording exflagellation, plates were incubated for a further 24 h in the dark at 28°C to ensure maximal expression of Pfs25 by female gametes. The plates were then returned to the microscope and female gametes imaged at x6 using fluorescence microscopy.
(§3) Exflagellation centres and female gametes were quantified using custom image analysis pipelines developed within ICY Bioimage Analysis (https://icy.bioimageanalysis.org/).

[2] = test system: P. falciparum female gametocytes; experiment: P. falciparum Dual Gamete Formation Assay (PfDGFA), female readout (Pfs25-positive female gametes); assay type: cell-based, Plasmodium falciparum NF54
Protocol: as §1, §2, §3

[3] = PfDGFA at 2µM, 24h preincubation with gametocytes prior to induction of gametogenesis, replicate R1
[4] = PfDGFA at 2µM, 24h preincubation with gametocytes prior to induction of gametogenesis, replicate R3
[5] = PfDGFA at 2µM, 24h preincubation with gametocytes prior to induction of gametogenesis, replicate R4
[6] = PfDGFA at 2µM, 24h preincubation, average of replicates
[7] = 2µM, 24h preincubation with gametocytes prior to induction of gametogenesis, average of replicates
[8] = 2µM, 24h preincubation with gametocytes prior to induction of gametogenesis, replicate R1
[9] = 2µM, 24h preincubation with gametocytes prior to induction of gametogenesis, replicate R3
[10] = 2µM, 24h preincubation with gametocytes prior to induction of gametogenesis, replicate R4
[11] = 2µM, 24h preincubation, hits selected on >50% inhibition in the male readout across replicates
[12] = PfDGFA at 2µM, 24h preincubation
[13] = 2µM, 24h preincubation, hits selected on >50% inhibition in the female readout across replicates
[14] = 2µM, 24h preincubation with gametocytes, average of replicates
[15] = 2µM, 24h preincubation with gametocytes, replicate R1
[16] = 2µM, 24h preincubation with gametocytes, replicate R3
[17] = 2µM, 24h preincubation with gametocytes, replicate R4
[18] = 2µM, 24h preincubation, number of replicates with >50% inhibition in the male readout
[19] = 2µM, 24h preincubation, number of replicates with >50% inhibition in the female readout
[20] = PfDGFA at 2µM, 24h preincubation with gametocytes, average of replicates
[21] = PfDGFA at 2µM, 24h preincubation with gametocytes, replicate R1
[22] = PfDGFA at 2µM, 24h preincubation with gametocytes, replicate R4

SMILES | Average inhibition male (%) [1, 7] [%] | % inhibition male (individual replicates) R1 [1, 8] [%] | % inhibition male (individual replicates) R3 [1, 9] [%] | % inhibition male (individual replicates) R4 [1, 10] [%] | HitlevelM [1, 11] | Activity [1, 12] | Average inhibition female (%) [2, 7] [%] | % inhibition female (individual replicates) R1 [2, 8] [%] | % inhibition female (individual replicates) R3 [2, 9] [%] | % inhibition female (individual replicates) R4 [2, 10] [%] | HitlevelF [2, 13] | also measured
c1ccc2sc(Sc3ncnc4sccc34)nc2c1 [TCMDC-125539] | – | – | – | – | – | – | – | – | – | – | – | Selectivity Ratio M ([1]; HepG2 Tox50 versus male IC50): 337.73; inhibition at 2 µM ([1]; Plasmodium falciparum, 2µM, 24h preincubation with gametocytes, average of replicates, read-out: Average inhibition male (%)): 97.1%; inhibition at 2 µM ([1]; Plasmodium falciparum, 2µM, 24h preincubation with gametocytes, replicate R1, read-out: % inhibition male (individual replicates) R1): 100%; inhibition at 2 µM ([1]; Plasmodium falciparum, 2µM, 24h preincubation with gametocytes, replicate R2, read-out: % inhibition male (individual replicates) R2): 97.4%; inhibition at 2 µM ([1]; Plasmodium falciparum, 2µM, 24h preincubation with gametocytes, replicate R3, read-out: % inhibition male (individual replicates) R3): 95.7%; inhibition at 2 µM ([1]; Plasmodium falciparum, 2µM, 24h preincubation with gametocytes, replicate R4, read-out: % inhibition male (individual replicates) R4): 94.9%; pIC50 ([1]; Plasmodium falciparum, PfDGFA, 24 h incubation with gametocytes before induction, exflagellation readout, read-out: Male IC50): 6.52; Selectivity ratio F ([2]; HepG2 Tox50 versus female IC50): 340.93; inhibition at 2 µM ([2]; Plasmodium falciparum, 2µM, 24h preincubation with gametocytes, average of replicates, read-out: Average inhibition female (%)): 60%; inhibition at 2 µM ([2]; Plasmodium falciparum, 2µM, 24h preincubation with gametocytes, replicate R1, read-out: % inhibition female (individual replicates) R1): 39.3%; inhibition at 2 µM ([2]; Plasmodium falciparum, 2µM, 24h preincubation with gametocytes, replicate R2, read-out: % inhibition female (individual replicates) R2): 92.2%; inhibition at 2 µM ([2]; Plasmodium falciparum, 2µM, 24h preincubation with gametocytes, replicate R3, read-out: % inhibition female (individual replicates) R3): 35.1%; inhibition at 2 µM ([2]; Plasmodium falciparum, 2µM, 24h preincubation with gametocytes, replicate R4, read-out: % inhibition female (individual replicates) R4): 73.5%; pIC50 ([2]; Plasmodium falciparum, PfDGFA, 24 h incubation with gametocytes before induction, female gamete readout, read-out: Female IC50): 6.54
CN1CCN(c2cc(-c3cccnc3)nc(-c3ccncc3)n2)CC1 [TCMDC-125593] | – | – | – | – | – | – | – | – | – | – | – | % inhibition male (individual replicates) R1 [1, 3]: -6.4%; % inhibition male (individual replicates) R3 [1, 4]: -15.1%; % inhibition male (individual replicates) R4 [1, 5]: 5.5%; Average inhibition male (%) [1, 6]: -4.3%; % inhibition female (individual replicates) R1 [2, 3]: -2.3%; % inhibition female (individual replicates) R3 [2, 4]: -6.8%; % inhibition female (individual replicates) R4 [2, 5]: 22.4%; Average inhibition female (%) [2, 6]: 0.0475%
Br.CCCCCCCCn1c2c(c(=N)c3c1CCC3)CCCC2 [TCMDC-125653] | 42.3 | 42.8 | 52.3 | 40.6 | 1 | 0 | 10.3 | 8.6 | 3.3 | 15.0 | 0 | –
COc1ccc2nc3cc(Cl)ccc3c(N)c2c1.Cl [TCMDC-125835] | – | – | – | – | – | – | – | – | – | – | – | Average inhibition male (%) [1, 14]: 96.0%; % inhibition male (individual replicates) R1 [1, 15]: 94.1%; % inhibition male (individual replicates) R3 [1, 16]: 90.9%; % inhibition male (individual replicates) R4 [1, 17]: 101.6%; Average inhibition female (%) [2, 14]: 50.6%; % inhibition female (individual replicates) R1 [2, 15]: 39.5%; % inhibition female (individual replicates) R3 [2, 16]: 15.3%; % inhibition female (individual replicates) R4 [2, 17]: 62.7%
Clc1ccc(Cc2nc3ccccc3[nH]2)cc1Cl [TCMDC-125878] | – | – | – | – | – | – | – | – | – | – | – | % inhibition male (individual replicates) R1 [1, 3]: 0.8%; % inhibition male (individual replicates) R3 [1, 4]: -14.5%; % inhibition male (individual replicates) R4 [1, 5]: 2.2%; Average inhibition male (%) [1, 6]: -4.5%; % inhibition female (individual replicates) R1 [2, 3]: 8.9%; % inhibition female (individual replicates) R3 [2, 4]: -15.0%; % inhibition female (individual replicates) R4 [2, 5]: -0.8%; Average inhibition female (%) [2, 6]: 0.655%
COc1ccc(CCNCCCCCCNCCc2ccc(-c3ccccc3)cc2)cc1OC.Cl [TCMDC-131267] | – | – | – | – | – | – | – | – | – | – | – | Average inhibition male (%) [1, 14]: 91.2%; % inhibition male (individual replicates) R1 [1, 15]: 90.5%; % inhibition male (individual replicates) R4 [1, 17]: 88.4%; Average inhibition female (%) [2, 14]: 51.9%; % inhibition female (individual replicates) R1 [2, 15]: 49.5%; % inhibition female (individual replicates) R3 [2, 16]: 51.6%; % inhibition female (individual replicates) R4 [2, 17]: 50.9%
COc1ccc(CCNCCCCCNCCc2ccc(Cl)cc2)cc1OC.Cl [TCMDC-131269] | 50.1 | 46.0 | 29.0 | 62.2 | 2 | 0 | 7.8 | 17.8 | -21.2 | 18.8 | 0 | –
Br.Oc1ccc(CCNCCCCCCNCCc2ccc(Cl)c3ccccc23)cc1O [TCMDC-131271] | 50.9 | 51.3 | 62.1 | 62.3 | – | – | 16.5 | 16.8 | 9.0 | 24.5 | – | HitlevelM [1, 18]: 3; HitlevelF [2, 19]: 0
COc1ccc(CCNCCCCCCNCCc2ccc(Cl)c(Cl)c2)cc1OC.Cl [TCMDC-131275] | 39.4 | 42.2 | 31.4 | 46.9 | 0 | 0 | 10.6 | 26.6 | -14.3 | 22.3 | 0 | –
Br.CC(C)(Cc1ccc(Cl)cc1)NCCCCCCNCCc1ccc(O)c(O)c1 [TCMDC-131277] | 21.3 | 17.2 | 18.9 | 31.6 | – | – | 25.5 | 31.9 | 42.8 | 1.4 | – | HitlevelM [1, 18]: 0; HitlevelF [2, 19]: 0
COc1ccc(CCNCCCCCCNCCCc2ccc(Cl)cc2)cc1OC.Cl [TCMDC-131280] | 28.8 | 30.2 | 15.3 | 32.2 | 0 | 0 | 17.7 | 16.6 | 13.1 | 24.0 | 0 | –
Br.CCCCc1ccc(CCNCCCCCCNCCc2ccc(O)c(O)c2)cc1 [TCMDC-131281] | – | – | – | – | – | – | – | – | – | – | – | Average inhibition male (%) [1, 20]: 80.5%; % inhibition male (individual replicates) R1 [1, 21]: 68.8%; % inhibition male (individual replicates) R4 [1, 22]: 77.5%; HitlevelM ([1]; number of replicates with >50% inhibition in the male readout, 2µM): 3; Average inhibition female (%) [2, 20]: 39.8%; % inhibition female (individual replicates) R1 [2, 21]: 30.3%; % inhibition female (individual replicates) R3 ([2]; PfDGFA at 2µM, 24h preincubation with gametocytes, replicate R3): 35.5%; % inhibition female (individual replicates) R4 [2, 22]: 31.1%; HitlevelF ([2]; number of replicates with >50% inhibition in the female readout, 2µM): 1
COc1cccc(CCNCCCCCCNCCc2ccc(Cl)cc2)c1.Cl [TCMDC-131284] | 40.5 | 42.7 | 17.7 | 36.9 | 1 | 0 | 15.8 | 18.4 | 6.6 | 6.5 | 0 | –
